The IC50 is the concentration needed to halve the response being measured. As a reminder, the Ki is the equilibrium dissociation constant of an inhibitor or competing ligand from its target.

Consider 5 compounds from publication PMC11997989, “Design of Novel Mercapto-3-phenylpropanoyl Dipeptides as Dual Angiotensin-Converting Enzyme C–Domain-Selective/Neprilysin Inhibitors” (Journal of Medicinal Chemistry, 2025).

Data set [1] concerns the target T1, nACE (Homo sapiens, UniProt P12821).
T1 construct: using purified recombinant single domain human ACE proteins and the human NEP ectodomain as previously described; made in house
Kind of data set: ACE inhibition assay, nACE (fluorogenic end point, Z-FHL). It counts as biochemical. As to conditions: for reduction in affinity for nACE compared to omapatrilat: factor, from IC50 values; for IC50: ~1 nM nACE, 0.5 mM Z-FHL, mean ± standard error, n ≥ 2. An excerpt:
(§1) For an accurate comparison of the inhibitor potencies across different enzymes and substrates, it is preferable to determine inhibition constants (Ki values). […] In the case of these new analogues, it was more challenging to accurately determine Ki values that could reliably be used to determine selectivity. […] This highlights the challenges in extrapolating data from in vitro assays to predict in vivo selectivity between targets. Furthermore, while comparing Ki values (assuming they can be accurately determined in vitro using available kinetic models) provides information on the relative binding affinities in the absence of substrate, in vivo the extent of enzyme inhibition will be affected by the relative concentrations and affinities of the physiological substrates competing for the binding sites. Given that accurate Ki values could not be calculated in a consistent manner for all compound-enzyme combinations, IC50 values are reported (Table 1).
(§2) Purified fully glycosylated human cACE and nACE proteins[36],[37] were used in fluorogenic end point activity assays utilizing Cbz-Phe-His-Leu (Z-FHL, Bachem Ltd., nACE Km = 600 μM; cACE Km = 60 μM) as the substrate as previously described.[32] Final reactions contained ∼1 nM nACE/cACE and 0.5 mM Z-FHL.

Data set [2] concerns the target T2, human NEP ectodomain (Homo sapiens, UniProt P08473).
T2 construct: A purified human NEP ectodomain was used in continuous activity assays; made in house
The data set can be described thus: NEP inhibition assay (continuous fluorogenic activity assay). It counts as biochemical. As to conditions: for IC50: 0.4 nM NEP, mean ± standard error, n ≥ 2. The text has this: Furthermore, while comparing Ki values (assuming they can be accurately determined in vitro using available kinetic models) provides information on the relative binding affinities in the absence of substrate, in vivo the extent of enzyme inhibition will be affected by the relative concentrations and affinities of the physiological substrates competing for the binding sites.

The target in data set [3] is T3, cACE (Homo sapiens, UniProt P12821).
T3 construct: using purified recombinant single domain human ACE proteins and the human NEP ectodomain as previously described; made in house
T3 sequence (P12821 643-1222 limits assumed): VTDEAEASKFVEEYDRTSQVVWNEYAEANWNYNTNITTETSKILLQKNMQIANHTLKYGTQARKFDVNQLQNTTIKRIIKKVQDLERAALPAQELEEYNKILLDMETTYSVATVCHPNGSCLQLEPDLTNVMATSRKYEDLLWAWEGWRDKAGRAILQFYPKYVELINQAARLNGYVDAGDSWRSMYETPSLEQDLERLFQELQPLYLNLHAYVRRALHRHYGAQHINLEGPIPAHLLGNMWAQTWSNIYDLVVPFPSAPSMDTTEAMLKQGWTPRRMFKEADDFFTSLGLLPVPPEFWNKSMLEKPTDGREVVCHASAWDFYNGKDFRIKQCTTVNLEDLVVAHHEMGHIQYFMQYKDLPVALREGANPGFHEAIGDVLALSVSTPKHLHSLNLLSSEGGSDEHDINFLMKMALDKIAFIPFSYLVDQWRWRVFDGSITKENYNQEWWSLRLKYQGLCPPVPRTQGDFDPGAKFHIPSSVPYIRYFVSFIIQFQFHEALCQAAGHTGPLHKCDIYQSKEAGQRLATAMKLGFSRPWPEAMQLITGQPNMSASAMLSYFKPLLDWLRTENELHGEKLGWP
The data set can be described thus: ACE inhibition assay, cACE (fluorogenic end point, Z-FHL). Type of data set: biochemical. As to conditions: for C-selectivity factor: nACE IC50/cACE IC50; for IC50: ~1 nM cACE, 0.5 mM Z-FHL, mean ± standard error, n ≥ 2.
From the text: as §1, §2

Data set [4] concerns the target T3, cACE. Kind of data set: Jump dilution assay, cACE. Type of data set: biochemical. As to conditions: 15 min pre-incubation, 20-fold dilution, activity immediately and ~3 h later, 1 mM Z-FHL. As to the method:
(§3) Figure S2: Jump dilution experiment forAD016. A) Enzyme and inhibitor were pre-incubated for 15 min and then an aliquot of each was removed and diluted 20-fold in assay buffer. Activity assays were performed on both the undiluted (A and C) and diluted (B and D) enzyme-inhibitor mixes immediately and ~3h. later. Reaction was initiated with Z-FHL substrate (1mM final concentration). Final enzyme and inhibitor concentrations are […]
(§4) The Morrison equation was fitted to the same data but gave a poor fit when Et was constrained to the enzyme concentration used in the assay and an unrealistic Et if this value was left unconstrained (Figure S3 C & D). The obvious explanation for the high Et predicted by the model is that the inhibitor concentration is much lower than […]
(§5) the nACE data would imply the inhibitor concentration is ~350-fold lower than expected while the cACE data implies it is 40-fold lower than expected. The same inhibitor dilution series was […]
(§6) (1 picture or pasted object on this page, not shown here)
(§7) Figure S4: Morrison plots for the inhibition of cACE by compound AD016. Two assays with carried out in parallel. One using 1nM final enzyme concentration and the other using 5-fold less (0.2nM). The model was fitted without constraining the Et. The Et predicted from data set using the Morrison equation is indicated on the graph. […]

Data set [5] deals with T1, nACE. The data set can be described thus: Jump dilution assay, nACE. It counts as biochemical. Conditions: 15 min pre-incubation, 20-fold dilution, activity immediately and ~3 h later, 1 mM Z-FHL. As to the method:
as §3, §4, §5, §6, §7

The target of data set [6] is T3, cACE. The data set can be described thus: Michaelis-Menten inhibition kinetics (mode of inhibition), cACE. It counts as biochemical. As to conditions: enzyme and inhibitor pre-incubated 15 min; best-fitting model. How it is done: (§8) page 9: curve. […] The apparent […]) obtained from this equation can then be converted to K i as for an IC50 value using Equation 1 provided the substrate competes with the inhibitor for the active site. (Et [[…] = V0(1 - i i ) Eq 2 2Et Where Vo is activity in absence of inhibitor, Vi is activity in presence of inhibitor, [I] is inhibitor concentration and Et is total enzyme concentration. Due to the slow binding of many protease inhibitors, inhibitors are typically pre-incubated with the enzyme prior to the addition of substrate to ensure that inhibition constants are measured under steady-state conditions. Accordingly, if an inhibitor forms a very tight complex with the enzyme resulting in a very slow off-rate, the inhibitor may not dissociate in the time of the experiment. Determining the Ki values for the mercaptoacyl inhibitors was challenging due to the chemical instability of the thiol group (although this was controlled by making up fresh stock before each experiment and diluting them immediately), the high potency, and the slow off rates observed in some cases, particularly for cACE. […] This is exemplified by the data for AD016. […] The K i values for the cACE determined in from this model were also inconsistent and were influence by the amount of enzyme used to the assay, again indicative of tight-binding conditions (Figure S1 C and D). […]

Another data set has as its target T4, NEP (Homo sapiens, UniProt P08473).
T4 construct: A purified human NEP ectodomain was used in continuous activity assays; made in house
Kind of data set: Michaelis-Menten inhibition kinetics (mode of inhibition), NEP. Conditions: enzyme and inhibitor pre-incubated 15 min; best-fitting model. Type of data set: biochemical.

The target in data set [7] is T1, nACE. Kind of data set: Michaelis-Menten inhibition kinetics (mode of inhibition), nACE. It counts as biochemical. Conditions: enzyme and inhibitor pre-incubated 15 min; best-fitting model. How it is done:
as §8

The target in data set [8] is T2, human NEP ectodomain. The arrangement: method as in PMID 35113565. As to conditions: stated in discussion, LisW data previously reported; cited from earlier work.
A further data set concerns patients. As to conditions: OCTAVE study, higher than the ACE inhibitor enalapril; cited from earlier work.
The mark [9] stands for this setting: 5 μM MCA-RPPGFSAFK(Dnp)-OH substrate.

SMILES strings stand for the structures.

T1 sequence (P12821 40-624 limits assumed): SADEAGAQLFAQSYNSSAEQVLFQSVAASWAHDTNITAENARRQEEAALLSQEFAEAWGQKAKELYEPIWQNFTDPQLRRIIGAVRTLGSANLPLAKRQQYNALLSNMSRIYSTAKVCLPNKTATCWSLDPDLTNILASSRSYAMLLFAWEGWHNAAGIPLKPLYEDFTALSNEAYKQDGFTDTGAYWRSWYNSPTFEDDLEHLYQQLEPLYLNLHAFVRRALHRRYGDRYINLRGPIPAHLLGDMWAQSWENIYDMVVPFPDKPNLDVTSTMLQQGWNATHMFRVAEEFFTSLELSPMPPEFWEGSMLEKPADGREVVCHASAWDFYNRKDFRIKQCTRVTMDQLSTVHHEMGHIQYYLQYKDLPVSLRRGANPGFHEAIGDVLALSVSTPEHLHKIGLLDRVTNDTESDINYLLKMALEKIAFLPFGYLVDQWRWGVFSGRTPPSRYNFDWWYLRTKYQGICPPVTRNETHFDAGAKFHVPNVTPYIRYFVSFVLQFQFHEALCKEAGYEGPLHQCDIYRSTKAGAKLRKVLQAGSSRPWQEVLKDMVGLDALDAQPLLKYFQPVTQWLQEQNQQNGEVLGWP
T2 sequence (P08473 52-750 limits assumed): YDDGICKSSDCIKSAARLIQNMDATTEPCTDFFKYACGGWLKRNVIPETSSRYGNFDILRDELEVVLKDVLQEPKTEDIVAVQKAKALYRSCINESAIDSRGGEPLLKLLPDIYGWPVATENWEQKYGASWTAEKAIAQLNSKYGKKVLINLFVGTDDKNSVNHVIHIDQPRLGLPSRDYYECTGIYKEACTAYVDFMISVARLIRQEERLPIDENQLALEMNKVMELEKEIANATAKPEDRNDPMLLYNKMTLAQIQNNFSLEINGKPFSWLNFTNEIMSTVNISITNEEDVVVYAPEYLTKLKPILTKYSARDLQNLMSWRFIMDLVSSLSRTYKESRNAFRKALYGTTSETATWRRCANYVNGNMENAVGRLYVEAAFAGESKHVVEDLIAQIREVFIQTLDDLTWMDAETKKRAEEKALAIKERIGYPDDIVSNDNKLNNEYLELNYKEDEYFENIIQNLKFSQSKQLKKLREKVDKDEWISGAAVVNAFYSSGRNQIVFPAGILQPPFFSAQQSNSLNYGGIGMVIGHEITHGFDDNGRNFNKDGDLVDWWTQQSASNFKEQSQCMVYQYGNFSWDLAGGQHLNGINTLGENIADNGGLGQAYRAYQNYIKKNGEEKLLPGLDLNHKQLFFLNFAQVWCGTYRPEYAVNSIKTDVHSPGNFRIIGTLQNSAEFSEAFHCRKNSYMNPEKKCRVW
T4 sequence (P08473 52-750 limits assumed): as above

As for `O=C(NCC(=O)N1[C@@H](c2cccc(O)c2)CC[C@H]1C(=O)O)[C@@H](S)Cc1ccc(O)cc1` [AD014, (2S,5R)-5-(3-Hydroxyphenyl)-1-(((S)-3-(4-hydroxyphenyl)-2-mercaptopropanoyl)glycyl)pyrrolidine-2-carboxylic Acid], on nACE [1], the “reduction in affinity for nACE compared to omapatrilat” value is listed as around 10 and the half-inhibitory concentration (IC50) stood at 20 ± 7 nM. This compound gave an IC50 at human NEP ectodomain [2] (setting [9]) of 20 ± 10 nM. The “reduction in affinity for cACE compared to omapatrilat” value at cACE [3] (factor, from IC50 values) is reported as around 10. Moreover, the C-selectivity factor on cACE [3] turned out to be 2.

`Cc1ccc([C@H]2CC[C@@H](C(=O)O)N2C(=O)CNC(=O)[C@@H](S)Cc2ccccc2)cc1` [AD015, (2S,5R)-1-(((S)-2-Mercapto-3-phenylpropanoyl)glycyl)-5-(p-tolyl)pyrrolidine-2-carboxylic Acid]: on nACE [1], the “reduction in affinity for nACE compared to omapatrilat” value came to 10. The concentration for half-maximal inhibition (IC50) on nACE [1] came to 19 ± 1 nM; at human NEP ectodomain [2] (setting [9]), 9 ± 3 nM; at cACE [3], 0.8 ± 0.2 nM. For the same compound, the “selectivity for NEP over nACE” value on human NEP ectodomain [2] (from IC50 values) was found to be 2 fold.

For `NCCCC[C@H](NC(=O)[C@@H](S)Cc1ccccc1)C(=O)N[C@@H](Cc1c[nH]c2ccccc12)C(=O)O` [AD016, ((S)-2-Mercapto-3-phenylpropanoyl)-L-lysyl-L-tryptophan], the IC50 on nACE [1] was 150 ± 20 nM; against human NEP ectodomain [2] (setting [9]), 1200 ± 200 nM; at human NEP ectodomain [2] (5 μM MCA-[…](Dnp)-OH substrate) it was 1000 nM. Moreover, at human NEP ectodomain [2] (ratio of NEP IC50 values, LisW vs compound), the “improved NEP inhibitory activity compared to LisW” value is given as “over 200 fold”. For the same compound, the “dissociation from cACE on jump dilution” value at cACE [4] is “remains tightly bound”. For the same compound, the “dissociation from nACE on jump dilution” value at nACE [5] is given as “dissociates from nACE when diluted”. Also, the “mode of inhibition of cACE” value on cACE [6] is listed as “non-competitive”. Also, the C-selectivity factor at cACE [3] is given as 21. Also, the “mode of inhibition of NEP” value at NEP is “competitive inhibition”. The “mode of inhibition of nACE” value on nACE [7] is listed as “competitive inhibition”.

Regarding `NCCCC[C@H](N[C@@H](CCc1ccccc1)C(=O)O)C(=O)N[C@@H](Cc1c[nH]c2ccccc12)C(=O)O` [LisW, Lisinopril-tryptophan], the inhibitory constant (Ki) at human NEP ectodomain [8] is above 150000 nM.

For `O=C(N[C@H]1CCS[C@H]2CCC[C@@H](C(=O)O)N2C1=O)[C@@H](S)Cc1ccccc1` [Omapatrilat, reference compound], the results for the IC50 at nACE [1], against human NEP ectodomain [2] (setting [9]) and on cACE [3] were 2 ± 0.1 nM, 10 nM and 1 ± 0.1 nM, respectively. Moreover, the “incidence of angioedema relative to enalapril” value with patients is recorded as 3 fold.
